{"source": "patent US11254654B2", "about": "“Heterochromatin gene repression inhibitors” (The University of North Carolina at Chapel Hill, priority 2017, dated 2022)", "key": {"H3K9me2/3": {"system": "H3K9me2/3", "assay": "Global H3K9me2/3 western blot of acid extracted histones", "type": "cell-based, mouse", "conditions": "10 μM compound, 48 hours", "protocol": "CiA:Oct4 N118/N163 cells were grown to confluency as described above in standard gelatin coated 6 well tissue culture plates. Media was aspirated and the cells were washed with 2 mL of PBS. The PBS was removed and the cells were trypsinized with 0.25% trypsin-EDTA until a single cell suspension was generated. Cells were transferred to a conical tube and pelleted at 300×g for 5 min. Supernatant was removed and the cells were washed with PBS and centrifuged at 300×g for 5 min. The PBS supernatant was removed. Nuclei were collected from the cells by resuspending the pellet in lysis buffer containing (50 mM HEPES pH 8.0, 140 mM NaCl, 1 mM EDTA, 10% glycerol, 0.5% NP40, 0.25% Triton X100). Cells were incubated in lysis buffer on ice for 10 min. Nuclei were pelleted at 1200×g for 5 min at 4° C. and the supernatant was removed. […]\nSDS-PAGE sample gels were transferred to Millipore Immobilon-FL PVDF membranes either by semi-wet or wet transfer according to Bio-Rad procedure. […] Western blot membranes were imaged using the Licor Odyssey scanner and data analyzed using Image Studio v5.2 software.\nHP1 gene repression and silencing is mediated by H3K9me3 deposition. […] Total extracted histone proteins were quantified by Bradford Coomassie and equal total protein was loaded per sample for gel electrophoresis and subsequent western blot analysis. […]"}, "CiA:Oct4 N118/N163 cells": {"system": "CiA:Oct4 N118/N163 cells", "assay": "Minus rapamycin counter screen for toxicity and cell differentiation", "type": "cell-based", "conditions": "10 μM compound, no rapamycin, 48 hrs", "protocol": "Day 0, CiA:Oct4 N118/163 cells were grown in ES media and seeded at a density of 10,000 cells per well (100,000 cells/mL) into gelatin coated 96 well plates. Day 1, media was aspirated and replaced with […] fresh ES media containing +/−6 nM rapamycin and 10 μM dilution of compounds from the EpiG compound set. Day 2, 100 μL fresh ES media containing +/−6 nM rapamycin and 10 μM dilution of compounds from the EpiG compound set was added as on Day 1. Day 3, the media was aspirated out of the wells and the cells were washed with PBS and trypsinized using 0.25% trypsin-EDTA. Trypsin was quenched with serum. Cells were resuspended by pipetting to prepare the plates for flow cytometry analysis.\nFlow cytometry was performed using an Intellicyt iQue Screener and analyzed with FlowJo software. Cell populations were gated based on forward and side scatter area. Single cell populations were isolated using forward scatter area by forward scatter height gating. Dead or dying cells that equally fluoresced in the GFP and APC channels upon excitation with 488 nm laser were omitted as autofluorescent, and the remaining cells were gated into GFP (−) and GFP (+) populations. […] Statistics were performed using standard T-test analysis.\nThe CiA:Oct4 N118/N163 recruitment system also functions as an internal counter screen for toxicity and cell differentiation in the absence of rapamycin recruited csHP1α. […]"}}, "note": "Structures can show the parent of a compound that is named as a salt.", "data": [{"smiles": "COc1cc2nc(N3CCCC3)nc(N[C@H]3CCCNC3)c2cc1OC", "note": "[compound 1, (S)-6,7-Dimethoxy-N-(Piperidin-3-yl)-2-(Pyrrolidin-1-yl)Quinazolin-4-Amine Trifluoroacetic Acid Salt]", "values": [{"measurement": "Global H3K9me2/3 levels normalized to histone H4", "setting": "H3K9me2/3", "value": "roughly equivalent decreases in H3K9 methylation"}, {"measurement": "GFP positive population levels without csHP1α recruitment", "setting": "CiA:Oct4 N118/N163 cells", "value": "did not decrease GFP positive population levels"}]}]}
